Data published in patent publication US20220409650A1, “COMPOSITIONS AND METHODS FOR ASCAROSIDE MODIFICATION OF MAMMALIAN MICROBIOTA” (Holoclara, Inc., priority 2019, published 2022).
Entries after “also recorded” stand apart in the source; their conditions may differ.

What was measured:
Assay type in all cases: in vivo, C57BL6 mice
[1] = tested on: gut microbiota; assay: Gut microbiota diversity (Shannon alpha diversity) from shotgun metagenomic sequencing of stool of treated mice; conditions: stools at end
Protocol: (§1) In the methods described for each of these examples, C57BL6 mice at 6 weeks of age were allowed to be appropriately acclimated before the start of the change in diet and treatments. For Experiment 1 (Example 1), thirty-two mice were evenly distributed into four groups with Group 1 as the control diet, no treatment, Group 2 as the high-fat diet, treat with DMSO control, Group 3 as the high-fat diet, treated with 12.5 μg of Ascr #7/mouse per injection (0.5 mg/kg dose assuming a 25 gm mouse), Group 4 as the high-fat diet, treated with 4.1 μg Ascr #9/mouse per injection (0.164 mg/kg dose assuming a 25 gm mouse). […]
(§2) DNA was extracted using the Qiagen MagAttract PowerSoil DNA KF kit (Formerly MO Bio PowerSoil DNA Kit) using a KingFisher robot. DNA quality was evaluated visually via gel electrophoresis and quantified using a Qubit 3.0 fluorometer (Thermo-Fischer, Waltham, Mass., USA). […]
(§3) Paired-end sequencing (150 bp×2) was done on a NextSeq 500 in medium-output mode. Shotgun metagenomic sequence reads were processed with the Sunbeam pipeline. […] Processing took part in four steps: adapter removal, read trimming, low-complexity reads removal, and host-sequence read removal. […] Low-complexity sequences were detected with Komplexity v0.3.6.
(§4) The remaining reads were taxonomically classified using Kraken2 with the MiniKraken2_v1 database. […]

[2] = tested on: Bifidobacterium (e.g., Bifidobacterium catenulatum); assay: Differential abundance of Bifidobacterium in gut microbiota of treated mice (stool sequencing); conditions: stools at end
Protocol: as §1, §2, §3, §4

[3] = tested on: Akkermansia; assay: Differential abundance of Akkermansia in gut microbiota of treated mice (stool sequencing); conditions: Experiment 1, mice, 31 days of treatment, stools at end, vs control (FIG. 9)
Protocol: as §1, §2, §3, §4

[4] = tested on: Adlercreutzia; assay: Differential abundance of Adlercreutzia in gut microbiota of treated mice (stool sequencing); conditions: Experiment 1, mice, 31 days of treatment, stools at end, vs control (FIG. 9)
Protocol: as §1, §2, §3, §4

[5] = Stool consistency (Bristol Stool Chart) of treated mice; conditions: Experiment 3, mice, 12.5 μg/mouse IP, stools at end, vs untreated control (FIG. 10)
Protocol: For Experiment 3, ten mice were assigned Group 7 to be treated with DMSO control. Eight mice were assigned to Group 8 to be treated with 12.5 μg of Ascr #7/mouse per injection (0.5 mg/kg dose assuming a 25 gm mouse). Nine mice were assigned to Group 9 to be treated with 12.5 μg of Compound 1/mouse per injection (0.5 mg/kg dose assuming a 25 gm mouse). To make the master stocks, Ascr #7 and Compound 1 were dissolved in DMSO to make 10 μg/uL of the Ascr #7 and Compound 1 master stocks and 12.5 μL of each master stocks were aliquoted into glass vials for each day of injection. Mice from each group were IP injected three times a week for 3 weeks and one day for a total of 10 injections. On each day of IP injection, 987.5 μL of ultra-pure water is added to each master stocks to make 0.125 μg/uL of Ascr #7 and Compound 1 working stocks and 100 μL of each was IP injected into mice. As will be described in greater detail below, Compound 1 refers to the ascaroside derisive:
The methods and compositions described herein may also be used to treat constipation. Constipation, which accompanies various diseases, may be a symptom of underlying defects in either transit of fecal mass through the gut or defecation, a commonly diagnosed functional gastrointestinal disorder. […]

Row | Structure (SMILES) | alpha diversity of the gut microbiota (Shannon's diversity index) ([1]; Experiment 3, mice, 12.5 μg/mouse IP three times a week, 10 injections, vs DMSO control (FIG. 3)) | amount of Bifidobacter in the gut microbiota ([2]; Experiment 1, mice, 31 days of treatment, vs control (FIG. 9)) | amount of Bifidobacterium catenulatum in the gut microbiota ([2]; Experiment 3, mice, vs control (FIG. 8)) | amount of Akkermansia in the gut microbiota [3] | amount of Adlercreutzia in the gut microbiota [4] | proportion of feces with Type 4 stools (smooth and soft, Bristol Stool Chart) [5] | alpha diversity of the gut microbiota (Shannon's diversity index) ([1]; Experiment 1, high-fat diet mice, 4.1 μg/mouse IP three times a week for 31 days, vs control (FIG. 4))
1 | C[C@H](CC/C=C/C(=O)O)O[C@@H]1O[C@@H](C)[C@H](O)C[C@H]1O [Ascr #7] | increased alpha diversity; also recorded: substantial increase in diversity | increases | specific increase; also recorded: increased significantly | increases; also recorded: increase in the overall amount | increases; also recorded: increase in the overall amount | significantly higher proportion of feces with Type 4 stools | 
2 | C[C@H](CCC(=O)O)O[C@@H]1O[C@@H](C)[C@H](O)C[C@H]1O [Ascr #9] |  |  |  | increase in the overall amount | increase in the overall amount |  | increase in alpha diversity; also recorded: increased
3 | C[C@H](CC/C=C/C(=O)OC(C)(C)C)O[C@@H]1O[C@@H](C)[C@H](O)C[C@H]1O [Compound 1, tert-butyl (2E,6R)-6-{[(2R,3R,5R,6S)-3,5-dihydroxy-6-methyloxan-2-yl]oxy}hept-2-enoate] |  |  |  |  |  | significantly higher proportion of feces with Type 4 stools | 
